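A five-concentration, 48-hour dose response in 96-well plates underlies each endpoint, interpolated linearly between surrounding concentrations. Abbreviation: GI50, concentration required for 50% inhibition of growth. TGI denotes the concentration required for complete inhibition of growth.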 Where a SMILES comes first, the peptide text is derived from it. Bridges are numbered along the chain shown (N, C = ends). [ ]: non-standard residue; d: D form. The star is where a group is joined. Cbz = O=C(OCc1ccccc1)*; Dab = NCC[CH](N)C(=O)O; Bn = c1ccc(C*)cc1
Legend:
Experiment in all cases: NCI anticancer screen, dose series, 48 h
OVCAR-8 ovarian = tested on: OVCAR-8 ovarian
UACC-62 melanoma = tested on: UACC-62 melanoma
UACC-257 melanoma = tested on: UACC-257 melanoma
HL-60(TB) leukemia = tested on: HL-60(TB) leukemia
OVCAR-3 ovarian = tested on: OVCAR-3 ovarian
U251 CNS = tested on: U251 CNS
SNB-75 CNS = tested on: SNB-75 CNS
SF-295 CNS = tested on: SF-295 CNS
OVCAR-4 ovarian = tested on: OVCAR-4 ovarian
DU-145 prostate = tested on: DU-145 prostate
NCI-H460 lung = tested on: NCI-H460 lung
TK-10 renal = tested on: TK-10 renal
SF-268 CNS = tested on: SF-268 CNS
SK-OV-3 ovarian = tested on: SK-OV-3 ovarian
NCI-H23 lung = tested on: NCI-H23 lung
SK-MEL-5 melanoma = tested on: SK-MEL-5 melanoma
HS 578T breast = tested on: HS 578T breast
K-562 leukemia = tested on: K-562 leukemia
A498 renal = tested on: A498 renal
HCT-15 colon = tested on: HCT-15 colon
NCI/ADR-RES ovarian = tested on: NCI/ADR-RES ovarian
MALME-3M melanoma = tested on: MALME-3M melanoma
MDA-MB-435 = tested on: MDA-MB-435
PC-3 prostate = tested on: PC-3 prostate
MCF7 breast = tested on: MCF7 breast
NCI-H522 lung = tested on: NCI-H522 lung
OVCAR-5 ovarian = tested on: OVCAR-5 ovarian
UO-31 renal = tested on: UO-31 renal
HOP-62 NSCLC = tested on: HOP-62 NSCLC
A549 NSCLC = tested on: A549 NSCLC
CAKI-1 renal = tested on: CAKI-1 renal
SF-539 CNS = tested on: SF-539 CNS
IGROV1 ovarian = tested on: IGROV1 ovarian
EKVX NSCLC = tested on: EKVX NSCLC
RXF 393 renal = tested on: RXF 393 renal
MDA-MB-231 breast = tested on: MDA-MB-231 breast
KM12 colon = tested on: KM12 colon
SN12C renal = tested on: SN12C renal
SK-MEL-28 melanoma = tested on: SK-MEL-28 melanoma
SNB-19 CNS = tested on: SNB-19 CNS
HT29 colon = tested on: HT29 colon
SW-620 colon = tested on: SW-620 colon
HCC-2998 colon = tested on: HCC-2998 colon
ACHN renal = tested on: ACHN renal
SK-MEL-2 melanoma = tested on: SK-MEL-2 melanoma
NCI-H226 lung = tested on: NCI-H226 lung
HOP-92 NSCLC = tested on: HOP-92 NSCLC
CCRF-CEM leukemia = tested on: CCRF-CEM leukemia
786-0 renal = tested on: 786-0 renal
LOX IMVI melanoma = tested on: LOX IMVI melanoma
SR leukemia = tested on: SR leukemia
M14 melanoma = tested on: M14 melanoma
MOLT-4 leukemia = tested on: MOLT-4 leukemia
HCT-116 colon = tested on: HCT-116 colon
BT-549 breast = tested on: BT-549 breast

## Cn1cc(-c2csc(-c3cn(C)c4ccc(Br)cc34)n2)c2cnccc21
OVCAR-8 ovarian
  GI50: 1.9 µM
  TGI: 3.61 µM
UACC-62 melanoma
  GI50: 1.72 µM
  TGI: 3.21 µM
UACC-257 melanoma
  GI50: 1.95 µM
  TGI: 3.63 µM
HL-60(TB) leukemia
  GI50: 1.48 µM
  TGI: 3.31 µM
OVCAR-3 ovarian
  GI50: 1.89 µM
  TGI: 3.49 µM
U251 CNS
  GI50: 1.78 µM
  TGI: 3.27 µM
SNB-75 CNS
  GI50: 1.28 µM
  TGI: 2.6 µM
SF-295 CNS
  GI50: 1.81 µM
  TGI: 3.4 µM
OVCAR-4 ovarian
  GI50: 1.68 µM
  TGI: 3.15 µM
DU-145 prostate
  GI50: 1.74 µM
  TGI: 3.17 µM
NCI-H460 lung
  GI50: 1.87 µM
  TGI: 3.47 µM
TK-10 renal
  GI50: 1.71 µM
  TGI: 3.22 µM
SF-268 CNS
  GI50: 1.9 µM
  TGI: 3.67 µM
SK-OV-3 ovarian
  GI50: 1.99 µM
  TGI: 3.6 µM
NCI-H23 lung
  GI50: 1.93 µM
  TGI: 3.65 µM
SK-MEL-5 melanoma
  GI50: 1.7 µM
  TGI: 3.09 µM
HS 578T breast
  GI50: 2.23 µM
  TGI: 4.73 µM
K-562 leukemia
  GI50: 0.239 µM
  TGI: 0.563 µM
A498 renal
  GI50: 1.78 µM
  TGI: 3.67 µM
HCT-15 colon
  GI50: 1.75 µM
  TGI: 3.25 µM
NCI/ADR-RES ovarian
  GI50: 2.07 µM
  TGI: 3.91 µM
MALME-3M melanoma
  GI50: 1.95 µM
  TGI: 3.48 µM
MDA-MB-435
  GI50: 1.76 µM
  TGI: 3.22 µM
PC-3 prostate
  GI50: 1.55 µM
  TGI: 3.02 µM
MCF7 breast
  GI50: 1.78 µM
  TGI: 3.43 µM
NCI-H522 lung
  GI50: 1.76 µM
  TGI: 3.44 µM
OVCAR-5 ovarian
  GI50: 1.78 µM
  TGI: 3.22 µM
UO-31 renal
  GI50: 1.63 µM
  TGI: 3 µM
HOP-62 NSCLC
  GI50: 1.9 µM
  TGI: 3.49 µM
A549 NSCLC
  GI50: 1.83 µM
  TGI: 3.48 µM
CAKI-1 renal
  GI50: 1.77 µM
  TGI: 3.22 µM
SF-539 CNS
  GI50: 1.8 µM
  TGI: 3.23 µM
IGROV1 ovarian
  GI50: 1.76 µM
  TGI: 3.28 µM
EKVX NSCLC
  GI50: 1.86 µM
  TGI: 3.48 µM
RXF 393 renal
  GI50: 1.7 µM
  TGI: 3.2 µM
MDA-MB-231 breast
  GI50: 1.66 µM
  TGI: 3.09 µM
KM12 colon
  GI50: 1.97 µM
  TGI: 3.69 µM
SN12C renal
  GI50: 1.53 µM
  TGI: 2.92 µM
SK-MEL-28 melanoma
  GI50: 1.85 µM
  TGI: 3.3 µM
SNB-19 CNS
  GI50: 1.73 µM
  TGI: 3.26 µM
HT29 colon
  GI50: 1.6 µM
  TGI: 3.09 µM
SW-620 colon
  GI50: 1.85 µM
  TGI: 3.48 µM
HCC-2998 colon
  GI50: 1.9 µM
  TGI: 3.57 µM
ACHN renal
  GI50: 1.97 µM
  TGI: 3.4 µM
SK-MEL-2 melanoma
  GI50: 1.93 µM
  TGI: 3.76 µM

## CC(C)CC1NC(=O)C(Cc2ccccc2)NC(=O)C(Cc2ccccc2)NC(=O)C(NC(=O)C(Cc2ccc(OCc3ccccc3)cc2)NC(=O)OCc2ccccc2)CCNC1=O (stereo unspecified) (Cbz-Y(Bn)[Dab]FFL; lactam 2-C; configuration not given here)
UACC-257 melanoma
  TGI: 84.7 µM
NCI-H23 lung
  TGI: > 100 µM
NCI-H226 lung
  TGI: > 100 µM
HOP-92 NSCLC
  TGI: > 100 µM

## O=Cc1ccc(-c2ccc(-c3nc4ccccc4[nH]3)cc2)s1
OVCAR-8 ovarian
  GI50: 26.2 µM
  TGI: 87.5 µM
UACC-62 melanoma
  GI50: 22.1 µM
  TGI: 52.9 µM
UACC-257 melanoma
  GI50: 45.4 µM
  TGI: > 100 µM
HL-60(TB) leukemia
  GI50: 47.1 µM
  TGI: > 100 µM
OVCAR-3 ovarian
  GI50: 20.9 µM
  TGI: 54.1 µM
U251 CNS
  GI50: 26.7 µM
  TGI: > 100 µM
SF-295 CNS
  GI50: 18.6 µM
  TGI: 55.5 µM
OVCAR-4 ovarian
  GI50: 33.8 µM
  TGI: 96.1 µM
DU-145 prostate
  GI50: 25.8 µM
  TGI: > 100 µM
NCI-H460 lung
  GI50: 13.1 µM
  TGI: 29.7 µM
TK-10 renal
  GI50: 23.5 µM
  TGI: 69.1 µM
SF-268 CNS
  GI50: 19.8 µM
  TGI: 48.3 µM
NCI-H23 lung
  GI50: 17.2 µM
  TGI: 35 µM
CCRF-CEM leukemia
  GI50: 14 µM
  TGI: 38.9 µM
786-0 renal
  GI50: 19 µM
  TGI: 62.2 µM
SK-MEL-5 melanoma
  GI50: 20.3 µM
  TGI: 41.9 µM
K-562 leukemia
  GI50: 17.7 µM
  TGI: 53 µM
HCT-15 colon
  GI50: 19.1 µM
  TGI: 53.3 µM
NCI/ADR-RES ovarian
  GI50: 21.1 µM
  TGI: 50.9 µM
LOX IMVI melanoma
  GI50: 21.8 µM
  TGI: 64.6 µM
NCI-H226 lung
  GI50: 27.3 µM
  TGI: 82.3 µM
SR leukemia
  GI50: 15.6 µM
  TGI: 98.7 µM
MDA-MB-435
  GI50: 26.4 µM
  TGI: 69.2 µM
PC-3 prostate
  GI50: 18.2 µM
  TGI: 40.3 µM
NCI-H522 lung
  GI50: 26.3 µM
  TGI: > 100 µM
M14 melanoma
  GI50: 18.2 µM
  TGI: 43.2 µM
OVCAR-5 ovarian
  GI50: 37 µM
  TGI: > 100 µM
HOP-62 NSCLC
  GI50: 16.1 µM
  TGI: 41.1 µM
MOLT-4 leukemia
  GI50: 32.4 µM
  TGI: > 100 µM
HOP-92 NSCLC
  GI50: 0.152 µM
  TGI: 28.1 µM
A549 NSCLC
  GI50: 40.4 µM
  TGI: > 100 µM
CAKI-1 renal
  GI50: 29.9 µM
  TGI: 57.2 µM
IGROV1 ovarian
  GI50: 34.8 µM
  TGI: > 100 µM
EKVX NSCLC
  GI50: 24 µM
  TGI: 87 µM
RXF 393 renal
  GI50: 22.7 µM
  TGI: 57.8 µM
HCT-116 colon
  GI50: 18.4 µM
  TGI: 39 µM
MDA-MB-231 breast
  GI50: 45.8 µM
  TGI: > 100 µM
KM12 colon
  GI50: 22.8 µM
  TGI: 69 µM
BT-549 breast
  GI50: 15.6 µM
  TGI: 52.4 µM
SN12C renal
  GI50: 31.6 µM
  TGI: 92.2 µM
SK-MEL-28 melanoma
  GI50: 47.7 µM
  TGI: > 100 µM
HT29 colon
  GI50: 38.9 µM
  TGI: > 100 µM
SW-620 colon
  GI50: 59.4 µM
  TGI: > 100 µM
HCC-2998 colon
  GI50: 29.3 µM
  TGI: 81.3 µM
ACHN renal
  GI50: 24.4 µM
  TGI: 67.1 µM
SK-MEL-2 melanoma
  GI50: 42 µM
  TGI: > 100 µM

Source: PubChem BioAssay (NCI)
